The subject of this assay is rat Schwann cells. The experiment in a line: In vitro test using Schwann cells (Schwann cell differentiation promotion, MAG immunostaining). It is filed as cell-based. The conditions noted are these: 3 days, MAG-positive area/cell nuclei; for activity at 0.3 µM / activity at 3 µM: Rattus norvegicus, 72 h; for activity at 0.3 µM: read-out: Schwann cell differentiation promotion rate (% of vehicle) 0.3 μmol/L; for activity at 3 µM: read-out: Schwann cell differentiation promotion rate (% of vehicle) 3 μmol/L. As for the experimental part: Biological Experiment Example 1: In Vitro Test Using Schwann Cells
• (1) Preparation of rat Schwann cells
A dorsal root ganglion (abbreviated as “DRG”, hereinafter) was excised from a newborn rat aged 0 to 2 days in a clean bench and was collected in DMEM. After the collection, the tube was centrifuged at 400 g, at room temperature for 3 minutes, then a supernatant was discarded, and a 0.25% collagenase solution was added. There resultant solution was incubated at 37° C. for 30 minutes to disperse and separate the excised DRG, and was then centrifuged at room temperature at 400 g for 3 minutes, then a supernatant was discarded, and then 0.25% Trypsin/EDTA and DNaseI were added. After the incubation at 37° C. for 30 minutes, trypsin was inactivated with DMEM supplemented with 10% FBS (10% FBS-DMEM), and centrifugation was carried out at room temperature at 400 g for 3 minutes. A supernatant was discarded, then 10% FBS-DMEM was added to the residue to prepare a cell suspension, and then the cell suspension was allowed to pass through a filter (diameter: 70 μm). The number of cells in the cell suspension which passed through the filter was counted to prepare a solution having a concentration of 2.0×10^5 cells/mL, and the suspension was seeded in a poly-D-lysine-coated 96-well black-clear plate in an amount of 100 μL/well and was then statically cultured in a CO2 incubator under the conditions including 5% of CO2, 95% of air and 37° C.
The culture medium in the cell culture plate was removed by suction using an aspirator, and then DMEM supplemented with 1% dialyzed FBS and 100 μmol/L dibutyryl cyclic AMP was added. Subsequently, a solution of a compound of the present invention dissolved in DMSO was added, and the resultant solution was statically cultured in a C02 incubator under the conditions including 5% of C02, 95% of air and a temperature of 37° C. The final concentration of the compound of the present invention in each well in the cell culture plate was adjusted to 0.1, 0.3, 1 or 3 μmol/L.
Three days after the treatment with the compound, formaldehyde was added to each well in the cell culture plate, and the cell culture plate was allowed to stand at room temperature for 30 minutes or longer. A supernatant was discarded, and then a 0.3% tritonX-100 solution was added to each well, and then the cell culture plate was allowed to stand at room temperature for 20 minutes or longer. A supernatant was discarded, then a 5-μg/mL anti-myeline-associated glycoprotein antibody (anti-MAG antibody) solution was added to each well, and then the cell culture plate was allowed to stand at room temperature for 60 minutes or longer or at 4° C. (acceptable range: 1 to 9° C.) overnight. Each well was washed with a 0.1% tritonX-100 solution three times, then a 10-μg/mL Alexa fluor 488 anti-mouse IgG solution was added to each well, and then the cell culture plate was allowed to stand at room temperature for 60 or longer or at 4° C. overnight. Each well was washed with a 0.1% tritonX-100 solution four times, and then a 1-μg/mL Hoechst33342 solution was added to each well to stain nuclei.
The Mag-positive area and the number of cell nuclei in a fluorescent image were calculated. With respect to each of the MAG-positive area and the number of cell nuclei, the sum total of values obtained in 5 viewing fields/well was determined. The values were employed as a value for the MAG-positive area and a value for the number of cell nuclei, respectively, in each well. Subsequently, a value determined by dividing the value for the MAG-positive area in each well by the value for the number of cell nuclei in the well (i.e., MAG/cell nuclei numerical value) was calculated. The Schwann cell differentiation promotion rate was determined for each of the vehicles in accordance with the following formula. […]

Regarding `CC(C)OC(=O)CCc1ccccc1OCC[C@@H](O)/C=C/c1cccc(NS(=O)(=O)c2ccccc2)c1` [Example 10, Propan-2-yl 3-[2-[(E,3R)-5-[3-(benzenesulfonamido)phenyl]-3-hydroxypent-4-enoxy]phenyl]propanoate], for the setting “compound 0.3 μmol/L”, the activity at 0.3 µM was 86.2%. Besides, the activity at 3 µM (compound 3 μmol/L) amounted to 593%.

Consider `O=C(O)CCc1ccccc1OCC[C@@H](O)/C=C/c1ccccc1NC(=O)c1ccccc1` [Example 12(5), 3-[2-[(E,3R)-5-(2-Benzamidophenyl)-3-hydroxypent-4-enoxy]phenyl]propanoic acid], for which the activity at 0.3 µM (compound 0.3 μmol/L) worked out at 147%. The activity at 3 µM (compound 3 μmol/L) stood at 234%.

On to `O=C(O)CCc1ccccc1OCC[C@@H](O)/C=C/c1cccc(NCc2ccccc2)c1` [Example 12(6), 3-[2-[(E,3R)-5-[3-(Benzylamino)phenyl]-3-hydroxypent-4-enoxy]phenyl]propanoic acid], for which, for the setting “compound 0.3 μmol/L”, the activity at 0.3 µM is 144%. Moreover, the activity at 3 µM (compound 3 μmol/L) was 435%.

For `O=C(O)CCc1ccccc1OCC[C@@H](O)/C=C/c1cccc(S(=O)(=O)Nc2ccccc2)c1` [Example 12(7), 3-[2-[(E,3R)-3-Hydroxy-5-[3-(phenylsulfamoyl)phenyl]pent-4-enoxy]phenyl]propanoic acid], the activity at 0.3 µM (compound 0.3 μmol/L) was determined as 111%. Under “compound 3 μmol/L”, the activity at 3 µM came to 379%.

Turning to `O=C(O)CCc1ccccc1OCC[C@@H](O)/C=C/c1cccc(C(=O)Nc2ccccc2)c1` [Example 12(8), 3-[2-[(E,3R)-3-Hydroxy-5-[3-(phenylcarbamoyl)phenyl]pent-4-enoxy]phenyl]propanoic acid], the activity at 0.3 µM (compound 0.3 μmol/L) came out at 158%. Besides, for the setting “compound 3 μmol/L”, the activity at 3 µM is 459%.

Consider `O=C(O)CCc1ccccc1OCC[C@@H](O)/C=C/c1ccccc1CNS(=O)(=O)c1ccccc1` [Example 12(11), 3-[2-[(E,3R)-5-[2-(Benzenesulfonamidomethyl)phenyl]-3-hydroxypent-4-enoxy]phenyl]propanoic acid], for which the activity at 0.3 µM (compound 0.3 μmol/L) is 203%. Also, the activity at 3 µM (compound 3 μmol/L) is 505%.

With `O=C(O)CCc1ccccc1OCC[C@@H](O)/C=C/c1ccc2c(c1)CN(S(=O)(=O)c1ccccc1)CC2` [Example 13(19), 3-[2-[(E,3R)-5-[2-(Benzenesulfonyl)-3,4-dihydro-1H-isoquinolin-7-yl]-3-hydroxypent-4-enoxy]phenyl]propanoic Acid], the activity at 0.3 µM (compound 0.3 μmol/L) was 142%. For the setting “compound 3 μmol/L”, the activity at 3 µM is 598%.

As to `O=C(O)CCc1ccccc1OCC[C@@H](O)/C=C/c1cccc(C[C@H](O)c2ccccc2)c1` [Example 26, 3-[2-[(E,3R)-3-Hydroxy-5-[3-[(2S)-2-hydroxy-2-phenylethyl]phenyl]pent-4-enoxy]phenyl]propanoic acid], where the note is “compound 0.3 μmol/L”, the activity at 0.3 µM came out at 196%. Further, the activity at 3 µM (compound 3 μmol/L) was 439%.

For `O=C(O)CCc1ccccc1OCC[C@@H](O)/C=C/c1cccc(C(O)CCc2ccccc2)c1` (stereo partly drawn) [Example 28, 3-[2-[(E,3R)-3-Hydroxy-5-[3-(1-hydroxy-3-phenylpropyl)phenyl]pent-4-enoxy]phenyl]propanoic acid], for the setting “compound 0.3 μmol/L”, the activity at 0.3 µM was found to be 188%. Where the note is “compound 3 μmol/L”, the activity at 3 µM turned out to be 628%.

In the case of `O=C(CCc1ccccc1OCC[C@@H](O)/C=C/c1cccc(NS(=O)(=O)c2ccccc2)c1)N1CCOCC1` [Example 32(1), N-[3-[(E,3R)-3-Hydroxy-5-[2-(3-morpholin-4-yl-3-oxopropyl)phenoxy]pent-1-enyl]phenyl]benzenesulfonamide], for the setting “compound 0.3 μmol/L”, the activity at 0.3 µM amounted to 408%.

On to `CN(C)C(=O)CCc1ccccc1OCC[C@@H](O)/C=C/c1cccc(NS(=O)(=O)c2ccccc2)c1` [Example 32(2), 3-[2-[(E,3R)-5-[3-(Benzenesulfonamido)phenyl]-3-hydroxypent-4-enoxy]phenyl]-N,N-dimethylpropanamide], for which the activity at 0.3 µM (compound 0.3 μmol/L) came to 340%. Moreover, the activity at 3 µM (compound 3 μmol/L) came to 788%.

On to `O=C(O)CCc1ccccc1OCC[C@@H](O)C1CC1c1cccc(NS(=O)(=O)c2ccccc2)c1` (stereo partly drawn) [Example 39, 3-[2-[(3R)-3-[2-[3-(Benzenesulfonamido)phenyl]cyclopropyl]-3-hydroxypropoxy]phenyl]propanoic acid], for which the activity at 0.3 µM (compound 0.3 μmol/L) worked out at 211%. For the same molecule, the activity at 3 µM (compound 3 μmol/L) came to 323%.

`O=C(O)CCc1ccccc1OCC[C@@H](O)/C=C/c1cccc(NS(=O)(=O)Cc2ccccc2)c1` [Example 74(15), 3-[2-[(E,3R)-5-[3-(Benzilsulfonylamino)phenyl]-3-hydroxypent-4-enoxy]phenyl]propanoic acid]: where the note is “compound 0.3 μmol/L”, the “Schwann cell differentiation promotion rate (% of vehicle) 0.3 μmol/L” value is given as 204.5 % of vehicle. For the same molecule, under “compound 3 μmol/L”, the “Schwann cell differentiation promotion rate (% of vehicle) 3 μmol/L” value was 428.1 % of vehicle.

Regarding `O=C(O)CCc1ccccc1OCC[C@@H](O)/C=C/c1cccc(NS(=O)(=O)c2ccccn2)c1` [Example 74(16), 3-[2-[(E,3R)-3-Hydroxy-5-[3-(pyridin-2-ylsulfonylamino)phenyl]pent-4-enoxy]phenyl]propanoic acid], under “compound 0.3 μmol/L”, the activity at 0.3 µM was found to be 212%. The activity at 3 µM (compound 3 μmol/L) was 300%.

For `O=C(O)CCc1ccccc1OCC[C@@H](O)/C=C/c1cccc(NS(=O)(=O)c2coc3ccccc23)c1` [Example 74(17), 3-[2-[(E,3R)-5-[3-(1-Benzofuran-3-ylsulfonylamino)phenyl]-3-hydroxypent-4-enoxy]phenyl]propanoic acid], the activity at 0.3 µM (compound 0.3 μmol/L) is 85.6%. In addition, where the note is “compound 3 μmol/L”, the activity at 3 µM turned out to be 252%.

Turning to `O=C(O)CCc1ccccc1OCC[C@@H](O)/C=C/c1cccc(NS(=O)(=O)c2ccsc2)c1` [Example 74(19), 3-[2-[(E,3R)-3-Hydroxy-5-[3-(thiophen-3-ylsulfonylamino)phenyl]pent-4-enoxy]phenyl]propanoic Acid], where the note is “compound 0.3 μmol/L”, the activity at 0.3 µM came to 187%. Moreover, where the note is “compound 3 μmol/L”, the activity at 3 µM worked out at 270%.

With `O=C(O)CCc1ccccc1OCC[C@@H](O)CCc1cccc(NS(=O)(=O)C2CCCC2)c1` [Example 75, 3-[2-[(3S)-5-[3-(Cyclopentylsulfonylamino)phenyl]-3-hydroxypentoxy]phenyl]propanoic Acid], where the note is “compound 0.3 μmol/L”, the activity at 0.3 µM came out at 181%. The activity at 3 µM (compound 3 μmol/L) is 244%.

`COC(=O)CCc1ccccc1OCCC(=O)/C=C/c1cccc(NS(=O)(=O)c2ccccc2)c1` [Example 77, Methyl 3-[2-[(E)-5-[3-(benzenesulfonamido)phenyl]-3-oxopent-4-enoxy]phenyl]propanoate]: the activity at 0.3 µM (compound 0.3 μmol/L) stood at 115%. The activity at 3 µM (compound 3 μmol/L) amounted to 256%.

Consider `O=C(O)CCc1ccccc1OCCC/C=C/c1nc(C(O)Cc2ccccc2)cs1` (stereo not shown) [Example 93, 3-[2-[(E)-5-[4-(1-Hydroxy-2-phenylethyl)-1,3-thiazol-2-yl]pent-4-enoxy]phenyl]propanoic acid], for which the activity at 0.3 µM (compound 0.3 μmol/L) turned out to be 108%. The activity at 3 µM (compound 3 μmol/L) came out at 374%.

Take `O=C(O)CCc1ccccc1OCCCC(=O)CCc1cccc(NS(=O)(=O)c2ccccc2)c1` [Example 103, 3-[2-[6-[3-(Benzenesulfonamido)phenyl]-4-oxohexoxy]phenyl]propanoic acid]: the activity at 0.3 µM (compound 0.3 μmol/L) is 199%. For the same molecule, the activity at 3 µM (compound 3 μmol/L) is 354%.

Regarding `O=C(O)CCc1ccccc1CCCC(=O)CCc1cccc(NS(=O)(=O)c2ccccc2)c1` [Example 112, 3-[2-[6-[3-(Benzenesulfonamido)phenyl]-4-oxohexyl]phenyl]propanoic acid], the activity at 0.3 µM (compound 0.3 μmol/L) came to 255%. For the same molecule, the activity at 3 µM (compound 3 μmol/L) is 504%.

Turning to `O=C(O)CCc1ccccc1OCCC(F)(F)CCc1cccc(NS(=O)(=O)c2ccccc2)c1` [Example 139, 3-[2-[5-[3-(Benzenesulfonamido)phenyl]-3,3-difluoropentoxy]phenyl]propanoic acid], the activity at 0.3 µM (compound 0.3 μmol/L) came to 209%. Also, where the note is “compound 3 μmol/L”, the activity at 3 µM turned out to be 541%.

Values taken from US12258308B2, “Benzene derivative” (ONO PHARMACEUTICAL CO., LTD., priority 2018, dated 2025).
